Experimental data as given in US20250066864A1, “METHODS FOR IDENTIFYING ADAR1 INHIBITORS, AND COMPOSITIONS AND METHODS OF USE IN TREATING CANCER” (The Wistar Institute of Anatomy and Biology, priority 2021, published 2025).
Read-outs that look alike come from different tables or passages of the source.

Molecular target: T1, ADAR1p110 (Homo sapiens, UniProt P55265)
T1 construct: HAT (N); FLAG (alternative preparation, not on the same molecule as HAT) (N); made in house; host or cells: Sf9 insect cells, baculovirus
T1 sequence (P55265 1-931 isoform P55265-5): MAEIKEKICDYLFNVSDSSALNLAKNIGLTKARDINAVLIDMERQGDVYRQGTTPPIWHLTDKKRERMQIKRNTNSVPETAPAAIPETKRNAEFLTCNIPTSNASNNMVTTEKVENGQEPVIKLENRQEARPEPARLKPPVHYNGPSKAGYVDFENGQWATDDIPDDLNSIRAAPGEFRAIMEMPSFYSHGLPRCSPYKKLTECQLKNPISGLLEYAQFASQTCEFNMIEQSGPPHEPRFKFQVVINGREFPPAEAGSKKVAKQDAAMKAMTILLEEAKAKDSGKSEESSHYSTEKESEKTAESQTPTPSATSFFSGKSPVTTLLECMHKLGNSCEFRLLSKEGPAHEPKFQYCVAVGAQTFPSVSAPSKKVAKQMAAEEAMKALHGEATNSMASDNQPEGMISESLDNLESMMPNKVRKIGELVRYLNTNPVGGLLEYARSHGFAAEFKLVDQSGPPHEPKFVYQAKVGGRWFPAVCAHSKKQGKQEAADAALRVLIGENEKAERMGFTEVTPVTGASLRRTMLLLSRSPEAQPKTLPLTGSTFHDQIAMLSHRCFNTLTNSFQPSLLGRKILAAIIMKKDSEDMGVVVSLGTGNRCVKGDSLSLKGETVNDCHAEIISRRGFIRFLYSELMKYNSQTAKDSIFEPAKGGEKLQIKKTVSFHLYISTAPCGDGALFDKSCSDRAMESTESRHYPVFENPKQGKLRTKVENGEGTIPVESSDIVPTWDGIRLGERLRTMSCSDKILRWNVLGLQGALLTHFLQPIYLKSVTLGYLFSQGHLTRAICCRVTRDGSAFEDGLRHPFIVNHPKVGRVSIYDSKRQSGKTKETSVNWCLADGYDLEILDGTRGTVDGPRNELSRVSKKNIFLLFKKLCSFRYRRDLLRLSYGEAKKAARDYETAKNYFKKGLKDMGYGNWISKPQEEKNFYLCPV
Assay: in vitro editing assay with recombinant ADAR1p110 and dsRNA or DNA:RNA substrates
Format: biochemical
Experimental: FIG. 26A-FIG. 26B show determination of IC50 by in vitro editing assay. In vitro editing assay using purified ADAR1p110 protein and two different substrates, matched (left) and mismatched (right) dsRNAs, was conducted in the presence of varying concentrations of compound #1 (FIG. 26A) or #13 (FIG. 26B) in order to estimate IC50 values for these compounds. In vitro editing was carried out using HAT-ADAR1p110 or HAT-ADAR2 recombinant protein (10 nM) and two different dsRNA substrates carrying a part of the CDK13 gene sequence (5 nM) at 37° C. for 2 hrs as described previously (12). Compounds were dissolved in 100% DMSO. The in vitro assay contained DMSO at final concentration of 16%.
The in vitro editing reaction mixture, containing 5 nM of telomere RNA:RNA duplex substrates and 75 nM of HAT-ADAR1p110-WT, FLAG-ADAR1p110-WT, or HA-ADAR1p110-EAA protein, was incubated at 37° C. for 2 h in in vitro editing buffer I (20 mM HEPES-KOH pH 7.5, 100 mM NaCl, 0.01% NP-40, 5% glycerol, 1 mM DTT). For editing of RNA:DNA hybrid substrates, in vitro editing buffer II (20 mM HEPES-KOH pH 7.5, 20 mM NaCl, 0.01% NP-40, 5% glycerol, 1 mM DTT) was used. Edited RNA or DNA strands were purified using Dynabeads MyOne Streptavidin C1 (Thermo Fisher Scientific). To remove opposite RNA or DNA strands, rNase H (NEB) or TURBO dNase (Thermo Fisher Scientific) was used, respectively. For sequencing of edited substrates, reverse transcription-PCR was carried out for RNA strands, while PCR was carried out for DNA strands. RT reactions were carried out using SuperScript III Reverse Transcriptase (Thermo Fisher Scientific), and PCR reactions were performed using Platinum Taq DNA polymerase (Thermo Fisher Scientific). PCR products were sequenced using a specific sequencing primer, and the ratio of A and G peaks in the chromatograms were analyzed by CodonCode Aligner (CodonCode Corporation).
The 54 compounds identified in the high-throughput screen were further tested in the in vitro editing assay described in Examples 1 and 2. The in vitro editing reaction mixture, containing 5 nM of telomere RNA:RNA duplex substrates and 75 nM of HAT-ADAR1p110-WT, FLAG-ADAR1p110-WT, or HA-ADAR1p110-EAA protein, was incubated at 37° C. for 2 h in in vitro editing buffer I (20 mM HEPES-KOH pH 7.5, 100 mM NaCl, 0.01% NP-40, 5% glycerol, 1 mM DTT) with 10 microM test compound. For editing of RNA:DNA hybrid substrates, in vitro editing buffer II (20 mM HEPES-KOH pH 7.5, 20 mM NaCl, 0.01% NP-40, 5% glycerol, 1 mM DTT) was used. Edited RNA or DNA strands were purified using Dynabeads MyOne Streptavidin C1 (Thermo Fisher Scientific). To remove opposite RNA or DNA strands, Rnase H (NEB) or TuRBO Dnase (Thermo Fisher Scientific) was used, respectively. For sequencing of edited substrates, reverse transcription-PCR was carried out for RNA strands, while PCR was carried out for DNA strands. RT reactions were carried out using SuperScript III Reverse Transcriptase (Thermo Fisher Scientific), and PCR reactions were performed using Platinum Taq DNA polymerase (Thermo Fisher Scientific). PCR products were sequenced using a specific sequencing primer, and the ratio of A and G peaks in the chromatograms were analyzed by CodonCode Aligner (CodonCode Corporation).

N#Cc1ccc(NC(=O)c2sc3ccccc3c2Cl)cc1 [Compound #13, 3-chloro-N-(4-cyanophenyl)-1-benzothiophene-2-carboxamide]
IC50 (DNA:RNA mismatched hybrid substrate, read-out: IC50 estimated by in vitro editing assay, DNA:mmRNA): 30 to 100 µM | IC50 (dsRNAs (matched, mismatched) and DNA:RNA hybrids, read-out: IC50 values for ADAR1p110): 7 to 40 µM | inhibition of editing of A:U matched dsRNA (matched dsRNA substrate, FIG. 25C, 10 microM test compound): preferentially inhibited matched adenosines | IC50 (matched dsRNA substrate, read-out: IC50 estimated by in vitro editing assay, RNA:RNA): 3 µM | IC50 (mismatched dsRNA substrate, adenosine position 2, read-out: IC50 estimated by in vitro editing assay, RNA:mmRNA, Position 2): 21 µM | IC50 (mismatched dsRNA substrate, adenosine position 5, read-out: IC50 estimated by in vitro editing assay, RNA:mmRNA, Position 5): 8.2 µM | IC50 (mismatched dsRNA substrate, adenosine position 6, read-out: IC50 estimated by in vitro editing assay, RNA:mmRNA, Position 6): 3.8 µM
